In experiment [1] the test system is plasma membrane NADH oxidase. The experiment is described as follows: Spectrophotometric NADH oxidase assay, rat liver plasma membranes (normal cells). It is filed as biochemical. The conditions noted are these: for response of the NADH oxidase activity (in words): in the presence of Mg^2+. As to the method:
Purification of plasma membranes from rat liver. A 5000 x g pellet from the preparation of Golgi apparatus (Morré (1971) Meth. Enzymol. 22, 130-148) was the starting material. The fluffy layer which contains the Golgi apparatus fraction was mixed, withdrawn and excluded from the plasma membrane preparations. Cold 1 mM NaHCO3 (5 ml) was added to each tube and the friable yellow-brown upper part of the pellet was resuspended with a pen-brush, leaving the reddish tightly packed bottom part of the pellet undisturbed. The resuspended material was homogenized in aliquots of 5 ml each in a 30 ml stainless steel homogenizer (Duragrind) 20 times by hand. The homogenates were combined, diluted with cold 1 mM NaHCO3 (1:1 dilution), and centrifuged at 6000 x g in a HB rotor for 15 min. The supernatant was discarded and the pellet was used for the two-phase separation (Morré & Morré (1989) BioTechniques 7:946-958).
The two-phase system contained 6.4% (w/w) Dextran T-500 (Pharmacia), 6.4% (w/w) polyethylene glycol) 3350 (Fisher), and 5 mM potassium phosphate buffer (pH 7.2) (Morré & Morré, 1989, supra). The homogenate (1 g) was added to the two-phase system and the weight of the system was brought to 8 g with distilled water. The tubes were inverted vigorously for 40 times in the cold (4°C). The phases were separated by centrifugation at 750 rpm (150 x g) in a Sorvall HB 4 rotor for 5 min. The upper phases were carefully withdrawn with a pasteur pipette, divided in half and transferred into 40 ml plastic centrifuge tubes and diluted with cold 1 mM NaHCO3. The purified plasma membranes were collected by centrifugation at 10,000 x g in a HB rotor for 30 min. Plasma membrane pellets were resuspended in 50 mM Tris-Mes buffer (pH 7.2) and stored at -70°C. Proteins were determined using the bicinchoninic acid (BCA) assay (Smith et al. (1985) Anal. Biochem. […]: 76-85) with bovine serum albumin as standard.
(§1) Spectrophometric assay of NADH oxidase. NADH oxidase activity was determined as the disappearance of NADH measured at 340 nm in a reaction mixture containing 25 mM Tris-MES buffer (pH 7.2), 1 mM KCN to inhibit the low levels of contaminating mitochondrial oxidase activity, and 150 µM NADH at 37°C with constant stirring. Activity was measured using a Hitachi U3210 spectrophotometer with continuous recording over two intervals of 5 min each. A millimolar extinction coefficient of 6.22 was used to determine specific activity.

The test system of experiment [2] is protein disulfide-thiol interchange of HeLa plasma membranes. The experiment is described as follows: Protein disulfide-thiol interchange (restoration of scrambled RNAse activity, yeast RNA hydrolysis method). It is filed as biochemical, human. The conditions noted are these: for protein disulfide-thiol interchange, I: column I; for protein disulfide-thiol interchange, II: column II; for protein disulfide-thiol interchange, III: column III. The protocol:
Estimation of protein disulfide isomerase- (PDI) like activity. Two methods were employed to determine PDI or PDI-like activity. […] For the assay, 100 µl was transferred to each of 4 tubes. Yeast RNA (100 µl, 0.33 mg/ml, pH 5.0) was added. After 0 min and 10 min, the reaction was stopped by the addition of 100 µl of 25% percholoric acid containing 0.75% uranyl acetate. The tubes were cooled in an ice bath for 5 min and clarified by centrifugation (2 min, microfuge). The 75 µl of the clear supernatant was diluted to 3.0 ml with water. The absorbance was measured at […] against an unincubated blank. […] To prepare the oxidized, denatured RNAse substrate (scrambled RNAse), native RNAse A (Sigma, Type 1-AS from bovine pancreas) (30 µg/ml) was incubated 1 h at 35°C in 50 mM Tris-acetate, pH 8.6, containing 9 M urea and 130 mM DTT. […] Protein concentration was estimated from spectrophotometric measurement at 280 nm using native RNAse A as standard. For preparation of scrambled RNAse, the reduced RNAse was diluted to 0.5 mg/ml with 0.1 M acetic acid. […] The scrambled product was recovered by acidification to pH 4 with glacial acetic acid and elution from Sephadex G-25 in 0.1 M acetic acid. Fractions containing protein were pooled, adjusted to pH 8 and stored at 4°C.

Experiment [3] has as its system Protein disulfide-thiol interchange activity of HeLa plasma membrane. As to the kind of experiment: Protein disulfide-thiol interchange (RNAse activity with cCMP as substrate). The format is biochemical, human. As to conditions: None 1.6. The protocol:
Estimation of protein disulfide isomerase- (PDI) like activity. Two methods were employed to determine PDI or PDI-like activity.
(§2) In the first method, ribonuclease A activity was measured using a spectrophotometric assay based on cCMP as RNAse substrate. Scrambled RNAse (90.363 mg) was incubated together with 0.45 mM cCMP in 50 Mm Tris-MES buffer, pH 6.5, at 30°C in a final volume of 3 ml. […] A variation of this assay was to preincubate scrambled RNAse with transitional endoplasmic reticulum for 20 min in the presence or absence of 1 µM all-trans retinol (using ethanol as control) and in the presence or absence of 1 µM reduced or oxidized glutathione or a mixture of both. After this 20 min of "reactivation" of RNAse, cCMP was added to a final concentration of 0.45 mM to initiate the reaction. The increase of the absorbance at 296 nm was recorded over 25 min and the concentrations of cCMP were determined (E = 0.19 mM^-1cm^-1). Spectrophotometric measurements were with a Hitachi U3210 spectrophotometer with a thermostatic cell compartment maintained at 30°C with continuous stirring.
Preparation of scrambled RNAse substrate. To prepare the oxidized, denatured RNAse substrate (scrambled RNAse), native RNAse A (Sigma, Type 1-AS from bovine pancreas) (30 µg/ml) was incubated 1 h at 35°C in 50 mM Tris-acetate, pH 8.6, containing 9 M urea and 130 mM DTT.
Protein concentration was estimated from spectrophotometric measurement at 280 nm using native RNAse A as standard. For preparation of scrambled RNAse, the reduced RNAse was diluted to 0.5 mg/ml with 0.1 M acetic acid. Solid urea was then added to a final concentration of 10 M after which 0.1 M sarcosine hydrochloride was added and the pH adjusted to 8.5 with 1 M Tris. The mixture then was incubated in the dark for 2-3 days during which time the protein was randomly oxidized. The scrambled product was recovered by acidification to pH 4 with glacial acetic acid and elution from Sephadex G-25 in 0.1 M acetic acid. Fractions containing protein were pooled, adjusted to pH 8 and stored at 4°C.

The subject of experiment [4] is circulating NADH oxidase in the serum. As to the kind of experiment: NADH oxidase activity of human serum. It is filed as biochemical. The conditions noted are these: normal human serum. The protocol:
as §1

The target of a further experiment is T1, native RNAse (Bos taurus, UniProt P61823).
T1 construct: native RNAse A (Sigma, Type 1-AS from bovine pancreas); purchased Sigma Type 1-AS; host or cells: bovine pancreas
T1 sequence (P61823 27-150): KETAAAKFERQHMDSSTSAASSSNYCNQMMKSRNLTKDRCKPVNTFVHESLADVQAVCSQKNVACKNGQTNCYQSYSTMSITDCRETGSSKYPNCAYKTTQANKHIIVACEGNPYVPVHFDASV
As to the kind of experiment: Activity of native RNAse. As to conditions: sulfonylurea 1 µM; for activity of native RNAse, pH 6.0: None 0.15; for activity of native RNAse, pH 6.8: None 0.21. The format is biochemical, bovine. As to the method: as §2, with “substrate.” for “substrate. Scrambled RNAse (90.363 mg) was incubated together with 0.45 mM cCMP in 50 Mm Tris-MES buffer, pH 6.5, at 30°C in a final volume of 3 ml.”, “[…] […]” for “A variation of this assay was to preincubate scrambled RNAse with transitional endoplasmic”

For experiment [5], the system named is NADH oxidase activity of culture medium with HeLa cells. The experiment is described as follows: NADH oxidase activity of culture medium with HeLa cells. The format is biochemical, human. As to the method: As is characteristic of many ectoproteins of the mammalian cell surface, an NADH oxidase activity is present in the serum and in HeLa cell culture filtrate. The NADH oxidase activity of culture medium with HeLa cells is proportional to time of incubation and to the amount of medium added. […] The activity is inhibited by 85°C for 20 min, trypsin, N-ethyl maleimide and PCMB, and guanosine nucleotides. These activities have properties similar to those of the plasma membrane-bound form. The circulating form appears to have a lower molecular weight (ca. 32 kD) than the membrane-bound form. The circulating NADH oxidase in the serum of cancer patients is inhibited by adriamycin whereas the circulating NADH oxidase in the serum of healthy individuals is not. Further details from this observation are found in the examples.

The test system of the next experiment is HeLa cells. The experiment is described as follows: Growth of HeLa cells in culture. The format is cell-based, human. As to the method: Growth of cells. HeLa cells (ATCC CCL2), were grown in 150 cm^2 flasks in Minimal Essential Medium (Gibco), pH 7.4. at 37°C with 10% bovine calf serum (heat-inactivated), plus 50 mg/l gentamycin sulfate (Sigma). Cells were trypsinized with Sigma IX trypsin for 1 to 2 min, harvested by scraping and taken up in TD-tris buffer (140 mM NaCl, 5 mM KCl, 0.7 mM Na2HPO4 and 25 mM Tris, pH 7.4) to a final cell concentration of 0.1 g wet weight (gww) per ml.
The number of cells initially plated was subtracted. The results were averages from duplicate experiments.

Where [6] appears, read: substance alone, thiol addition 1 µM, none 0.11.
Setting [7] is: substance alone, thiol addition 1 µM, none 0.047.
The mark [8] stands for this setting: biphasic response, read-out: Km at low NADH concentrations.

As to `CC1=CC(=O)[C@@H](O)[C@]2(C)[C@H]3[C@@]4(O)OC[C@]35[C@H]([C@@H](C)[C@H]4O)[C@@H](O)C(=O)O[C@@H]5C[C@@H]12` [(-)-glaucarubolone], the IC50 in experiment [1] (liver plasma membranes, Figure 3, read-out: final concentration at which the activity was 50% inhibited) was approximately 1 nM.

Regarding `Nc1nc2c(ncn2[C@@H]2O[C@H](COP(=O)(O)OP(=O)(O)O)[C@@H](O)[C@H]2O)c(=O)[nH]1` [GDP], in experiment [1], the “response of the NADH oxidase activity (in words)” value is reported as “inhibited”.

Regarding `N[C@@H](CCC(=O)N[C@@H](CS)C(=O)NCC(=O)O)C(=O)O` [GSH, reduced glutathione], the “protein disulfide-thiol interchange, I” value in experiment [2] (setting [6]) is 0.06 0.D./10 min. Also, the “protein disulfide-thiol interchange, II” value in experiment [2] (setting [7]) is 0.06 0.D./10 min. In addition, the “protein disulfide-thiol interchange, III” value in experiment [2] (substance alone, thiol addition 1 µM, none 0.021) was 0.041 0.D./10 min. In addition, in experiment [3] (thiol treatment, concentration not given), the “Protein disulfide-thiol interchange activity” value is 2.1 nmoles/min/mg protein.

`Nc1nc2c(ncn2[C@@H]2O[C@H](COP(=O)(O)OP(=O)(O)OP(O)(O)=S)[C@@H](O)[C@H]2O)c(=O)[nH]1` [GTP [γ-S]]: in experiment [1], the “response of the NADH oxidase activity (in words)” value was “inhibited”.

Turning to `Nc1nc2c(ncn2[C@@H]2O[C@H](COP(=O)(O)OP(=O)(O)OP(=O)(O)O)[C@@H](O)[C@H]2O)c(=O)[nH]1` [GTP], the “inhibition of NADH oxidase activity (in words)” value in experiment [4] is on record as “inhibited”.

Turning to `Cc1ccc(S(=O)(=O)NC(=O)Nc2ccc(Cl)cc2)cc1` [LY181984, N-(4-methylphenylsulfonyl)-N'-(4-chlorophenyl) urea], the “protein disulfide-thiol interchange, I” value in experiment [2] (setting [6]) is given as 0.076 0.D./10 min. In experiment [2] (sulfonylurea with GSH 1 µM), the “protein disulfide-thiol interchange, I” value was 0.056 0.D./10 min; the “protein disulfide-thiol interchange, II” value is on record as 0.03 0.D./10 min; the “protein disulfide-thiol interchange, III” value was 0.018 0.D./10 min. Besides, in experiment [2] (sulfonylurea with GSSG 1 µM), the “protein disulfide-thiol interchange, I” value is recorded as 0.044 0.D./10 min; the “protein disulfide-thiol interchange, II” value was 0.04 0.D./10 min; the “protein disulfide-thiol interchange, III” value is reported as 0.016 0.D./10 min. For the same compound, the “protein disulfide-thiol interchange, II” value in experiment [2] (setting [7]) is given as 0.049 0.D./10 min. Further, the “inhibition of protein disulfide isomerase-like activity (in words)” value in experiment [2] (plasma membrane vesicles isolated from HeLa cells) is “inhibited the activity”. In addition, on native RNAse, the “activity of native RNAse, pH 6.0” value is 0.14 µmol/mg/min and the “activity of native RNAse, pH 6.8” value came to 0.21 µmol/mg/min. Also, the “Protein disulfide-thiol interchange activity” value in experiment [3] (treatment at 1 µM) came to 1.0 nmoles/min/mg protein.

Regarding `Cc1ccc(S(=O)(=O)NC(=O)Nc2ccccc2)cc1` [LY181985, N-(4-methylphenylsulfonyl)-N'-(phenyl)urea], at native RNAse, the “activity of native RNAse, pH 6.0” value was determined as 0.15 µmol/mg/min and the “activity of native RNAse, pH 6.8” value came out at 0.21 µmol/mg/min.

`CCN1C(=O)C=CC1=O` [N-ethyl maleimide]: the “inhibition of NADH oxidase activity (in words)” value in experiment [5] and in experiment [4] was “inhibited” in each case.

Consider `NC(=O)C1=CN([C@@H]2O[C@H](COP(=O)(O)OP(=O)(O)OC[C@H]3O[C@@H](n4cnc5c(N)ncnc54)[C@H](O)[C@@H]3O)[C@@H](O)[C@H]2O)C=CC1` [NADH, reduced pyridine nucleotide], for which the Km came to 15 µM in experiment [5] (setting [8]) and 25 µM in experiment [4] (setting [8]).

Regarding `O=C(O)c1cc[c]([Hg][Cl])cc1` [PCMB, p-chloromercuribenzoate], the “inhibition of NADH oxidase activity (in words)” value in experiment [5] and in experiment [4] was “inhibited” each time.

As for `Nc1ccc(Cl)cc1` [free chloroaniline, chloroaniline], the “inhibition of growth of HeLa cells (in words)” value in the experiment with HeLa cells is “inactive”.

For aluminum fluoride, in experiment [1], the “response of the hormone- and growth-stimulated NADH oxidase (in words)” value is “weakly inhibitory”.

With mastoparan, in experiment [1], the “response of the hormone- and growth-stimulated NADH oxidase (in words)” value is “activated”.

The record behind these values is EP0752872B1, “NADH OXIDASE AS A TARGET IN DIAGNOSIS AND THERAPY” (Morré, D. James, priority 1994, dated 1995).
